Here are results for one molecule from publication PMC8533206 (Antioxidants, 2021).

Test [1] has as its system PC12 cells. The test can be described thus: Protective effect against 6-OHDA-induced cytotoxicity in PC12 cells (MTT). Particulars: Rattus norvegicus, PC-12, read-out: IC50 against 6-OHDA-induced cytotoxicity. The procedure: (§1) PC12 cells were routinely maintained in RPMI-1640 media containing 100 IU/mL penicillin, and 100 μg/mL streptomycin supplemented by 10% heat-inactivated HS, 5% FBS in a humidified incubator containing 5% CO2 and 95% air at 37 °C [25]. The cell culture media was changed every two days. To perform experiments, cells were plated on poly-D-lysine/laminin-coated 24-well plates at a density of 3 × 10^5 cells/well and incubated for at least 24 h to allow cell adhesion.
(§2) To examine the effects of the test compounds on cell survival, cells were incubated in low serum media (1% HS, 1% FBS, 100 IU/mL penicillin, and 100 μg/mL streptomycin) with test compounds at the concentrations of 10 and 30 μM or an equivalent volume of vehicle control (DMSO at the final concentration of 0.3%) for 24 h. The media containing test compounds was sonicated at room temperature for 30 min to assure adequate dissolution in the media. […]
(§3) After the desired treatment, cell viability was determined by MTT assay as described previously, with slight modification. […] The absorbance of the dissolved solution was measured at 550 nm using a microplate reader (SpectraMax M2e, Molecular Devices, Sunnyvale, CA, USA). The cell viability was presented as the percentage of the absorbance measured in the vehicle-treated control cells. […]

Test [2] has as its system PC12 cells. The test can be described thus: Protective effect against rotenone-induced cytotoxicity in PC12 cells (MTT). Particulars: Rattus norvegicus, PC-12, read-out: IC50 against rotenone-induced cytotoxicity. The procedure: as §1, §2, §3

As to `O=C(Nc1ccc(Br)cc1)c1ccc2[nH]ccc2c1` [Compound 8b, N-(4-bromophenyl)-1H-indole-5-carboxamide], the IC50 (usually the midpoint of a concentration-inhibition curve) was found to be 2.8 µM with PC12 cells [1] and 3.3 µM in the test on PC12 cells [2].
